Assays:
MKNK1 [1] = biological target: T1, MKNK1 (Homo sapiens, UniProt Q9BUB5, T385D); experiment: MKNK1 kinase assay (MKNK1 TR-FRET assay); type: biochemical; settings: 10 μM ATP, 15 min preincubation
T1 construct: GST (N); purchased Carna Biosciences 02-145; host or cells: insect cells (baculovirus expression system)

MKNK1 [2] = biological target: T1, MKNK1; experiment: MKNK1 kinase high ATP assay (TR-FRET-based); type: biochemical; settings: 2 mM ATP, 15 min preincubation
Procedure, shortened: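 TR-FRET read-out (anti-phospho-S6 Ser236 antibody, Eu/XL665) of biotin-peptide phosphorylation (0.06 μM) at high ATP (2 mM final). Enzyme was GST-MKNK1 full length, T344D, pre-bound to compound for 15 min before a 30 min reaction at 22 °C, pH 7.5. Inhibition scaled between no-inhibitor (0%) and no-enzyme (100%) wells.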

T1 sequence (Q9BUB5 1-424 isoform Q9BUB5-2 T344D): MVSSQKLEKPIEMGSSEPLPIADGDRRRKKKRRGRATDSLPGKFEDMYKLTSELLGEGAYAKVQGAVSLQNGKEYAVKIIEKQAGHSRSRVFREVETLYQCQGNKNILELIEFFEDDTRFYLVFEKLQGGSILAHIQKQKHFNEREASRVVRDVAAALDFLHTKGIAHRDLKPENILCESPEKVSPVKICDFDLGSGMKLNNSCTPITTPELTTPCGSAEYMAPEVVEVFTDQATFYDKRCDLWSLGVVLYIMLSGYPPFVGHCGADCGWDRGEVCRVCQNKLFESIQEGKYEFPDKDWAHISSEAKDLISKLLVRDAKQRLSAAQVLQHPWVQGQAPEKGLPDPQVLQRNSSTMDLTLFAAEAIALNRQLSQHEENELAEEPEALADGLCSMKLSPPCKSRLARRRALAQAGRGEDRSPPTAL

Compound | IC50 (MKNK1 [1]; Table 1b) [nM] | IC50 (MKNK1 [2]; Table 2b) [nM] | IC50 (MKNK1 [1]; Table 1c) [nM] | IC50 (MKNK1 [2]; Table 2c) [nM]
C[C@@H]1CN(c2cccc3oc(-c4cnc5ccc(O[C@H]6C[C@H](N)C6)nn45)cc23)CCO1 [II-73, trans-3-[(3-{4-[(2R)-2-methylmorpholin-4-yl]-1-benzofuran-2-yl}imidazo[1,2-b]pyridazin-6-yl)oxy]cyclobutanamine] | 42.4 | 47.6 |  | 
CC1(C)CN(c2cccc3oc(-c4cnc5ccc(OC[C@H]6CCC(=O)N6)nn45)cc23)CCO1 [II-74, (5R)-5-[({3-[4-(2,2-dimethylmorpholin-4-yl)-1-benzofuran-2-yl]imidazo[1,2-b]pyridazin-6-yl}oxy)methyl]pyrrolidin-2-one] | 4.1 | 11.2 |  | 
C[C@@H](N)COc1ccc2ncc(-c3cc4c(N5CCOC[C@@H]5C)cccc4o3)n2n1 [II-75, (2R)-1-[(3-{4-[(3S)-3-methylmorpholin-4-yl]-1-benzofuran-2-yl}imidazo[1,2-b]pyridazin-6-yl)oxy]propan-2-amine] | 23 | 25.7 |  | 
C[C@@H](N)COc1ccc2ncc(-c3cc4c(N5CCO[C@@H](C)C5)cccc4o3)n2n1 [II-76, (2R)-1-[(3-{4-[(2S)-2-methylmorpholin-4-yl]-1-benzofuran-2-yl}imidazo[1,2-b]pyridazin-6-yl)oxy]propan-2-amine] | 6.9 | 18.4 |  | 
C[C@@H](N)COc1ccc2ncc(-c3cc4c(N5CCOCC5)nccc4o3)n2n1 [III-1, (2R)-1-({3-[4-(Morpholin-4-yl)furo[3,2-c]pyridin-2-yl]imidazo[1,2-b]pyridazin-6-yl}oxy)propan-2-amine] |  |  | 8.4 | 19.5
C[C@@H](N)COc1ccc2ncc(-c3cc4c(N5CCC(CO)CC5)nccc4o3)n2n1 [III-2, {1-[2-(6-{[(2R)-2-Aminopropyl]oxy}imidazo[1,2-b]pyridazin-3-yl)furo[3,2-c]pyridin-4-yl]piperidin-4-yl}methanol] |  |  | 1.8 | 1.8
C[C@@H]1COCCN1c1nccc2oc(-c3cnc4ccc(OC[C@@H](C)N)nn34)cc12 [III-3, (2R)-1-[(3-{4-[(3R)-3-Methylmorpholin-4-yl]furo[3,2-c]pyridin-2-yl}imidazo-[1,2-b]pyridazin-6-yl)oxy]propan-2-amine] |  |  | 6.7 | 11.7
CCN(CCOC)c1nccc2oc(-c3cnc4ccc(OC[C@@H](C)N)nn34)cc12 [III-4, 2-(6-{[(2R)-2-Aminopropyl]oxy}imidazo[1,2-b]pyridazin-3-yl)-N-ethyl-N-(2-methoxyethyl)furo[3,2-c]pyridin-4-amine] |  |  | 0.6 | 0.4
C[C@H](N)COc1ccc2ncc(-c3cc4c(N5CCOCC5)nccc4o3)n2n1 [III-7, (2S)-1-({3-[4-(Morpholin-4-yl)furo[3,2-c]pyridin-2-yl]imidazo[1,2-b]pyridazin-6-yl}oxy)propan-2-amine] |  |  | 11.6 | 21.7
C[C@H](N)COc1ccc2ncc(-c3cc4c(N5CCN(C)CC5)nccc4o3)n2n1 [III-8, (2S)-1-({3-[4-(4-Methylpiperazin-1-yl)furo[3,2-c]pyridin-2-yl]imidazo[1,2-b]pyridazin-6-yl}oxy)propan-2-amine] |  |  | 7.2 | 16.3
C[C@H](N)COc1ccc2ncc(-c3cc4c(N5CCCCC5)nccc4o3)n2n1 [III-9, (2S)-1-({3-[4-(Piperidin-1-yl)furo[3,2-c]pyridin-2-yl]imidazo[1,2-b]pyridazin-6-yl}oxy)propan-2-amine] |  |  | 10.6 | 20.4
C[C@H](N)COc1ccc2ncc(-c3cc4c(N5CCCC5)nccc4o3)n2n1 [III-10, (2S)-1-({3-[4-(Pyrrolidin-1-yl)furo[3,2-c]pyridin-2-yl]imidazo[1,2-b]pyridazin-6-yl}oxy)propan-2-amine] |  |  | 15.4 | 63.5
C[C@H](N)COc1ccc2ncc(-c3cc4c(N5CC[C@@H](N(C)C)C5)nccc4o3)n2n1 [III-11, (3R)-1-[2-(6-{[(2S)-2-Aminopropyl]oxy}imidazo[1,2-b]pyridazin-3-yl)furo[3,2-c]pyridin-4-yl]-N,N-dimethylpyrrolidin-3-amine] |  |  | 2.7 | 12.4
C[C@H](N)COc1ccc2ncc(-c3cc4c(N(C)CCCN5CCCC5)nccc4o3)n2n1 [III-12, 2-(6-{[(2S)-2-Aminopropyl]oxy}imidazo[1,2-b]pyridazin-3-yl)-N-methyl-N-[3-(pyrrolidin-1-yl)propyl]furo[3,2-c]pyridin-4-amine] |  |  | 8.6 | 43.1
C[C@H](N)COc1ccc2ncc(-c3cc4c(N(C)C5CCN(C)CC5)nccc4o3)n2n1 [III-13, 2-(6-{[(2S)-2-Aminopropyl]oxy}imidazo[1,2-b]pyridazin-3-yl)-N-methyl-N-(1-methylpiperidin-4-yl)furo[3,2-c]pyridin-4-amine] |  |  | 13 | 62
C[C@H](N)COc1ccc2ncc(-c3cc4c(N5CCC[C@@H]5CO)nccc4o3)n2n1 [III-14, {(2R)-1-[2-(6-{[(2S)-2-Aminopropyl]oxy}imidazo[1,2-b]pyridazin-3-yl)furo-[3,2-c]pyridin-4-yl]pyrrolidin-2-yl}methanol] |  |  | 6.9 | 17.9
C[C@H](N)COc1ccc2ncc(-c3cc4c(N5CCN(C(=O)OC(C)(C)C)CC5)nccc4o3)n2n1 [III-15, tert-Butyl 4-[2-(6-{[(2S)-2-aminopropyl]oxy}imidazo[1,2-b]pyridazin-3-yl)furo[3,2-c]pyridin-4-yl]piperazine-1-carboxylate] |  |  | 31 | 78.4
COCCN(C)c1nccc2oc(-c3cnc4ccc(OC[C@H](C)N)nn34)cc12 [III-16, 2-(6-{[(2S)-2-Aminopropyl]oxy}imidazo[1,2-b]pyridazin-3-yl)-N-(2-methoxyethyl)-N-methylfuro[3,2-c]pyridin-4-amine] |  |  | 2.1 | 6
C[C@H](N)COc1ccc2ncc(-c3cc4c(N5CCNCC5)nccc4o3)n2n1 [III-17, (2S)-1-({3-[4-(Piperazin-1-yl)furo[3,2-c]pyridin-2-yl]imidazo[1,2-b]pyridazin-6-yl}oxy)propan-2-amine] |  |  | 18.3 | 44.2
CCN(CCOC)c1nccc2oc(-c3cnc4ccc(OC[C@H](C)N)nn34)cc12 [III-18, 2-(6-{[(2S)-2-Aminopropyl]oxy}imidazo[1,2-b]pyridazin-3-yl)-N-ethyl-N-(2-methoxyethyl)furo[3,2-c]pyridin-4-amine] |  |  | 0.7 | 0.9
C[C@H](N)COc1ccc2ncc(-c3cc4c(N5C[C@@H](C)O[C@@H](C)C5)nccc4o3)n2n1 [III-19, (2S)-1-[(3-{4-[(2R,6S)-2,6-Dimethylmorpholin-4-yl]furo[3,2-c]pyridin-2-yl}imidazo[1,2-b]pyridazin-6-yl)oxy]propan-2-amine] |  |  | 12.2 | 42.7
C[C@H](N)COc1ccc2ncc(-c3cc4c(N(C)CCCO)nccc4o3)n2n1 [III-20, 3-{[2-(6-{[(2S)-2-Aminopropyl]oxy}imidazo[1,2-b]pyridazin-3-yl)furo[3,2-c]pyridin-4-yl](methyl)amino}propan-1-ol] |  |  | 3.9 | 10.5
C[C@H](N)COc1ccc2ncc(-c3cc4c(N5CCC(N(C)C)CC5)nccc4o3)n2n1 [III-21, 1-[2-(6-{[(2S)-2-Aminopropyl]oxy}imidazo[1,2-b]pyridazin-3-yl)furo[3,2-c]pyridin-4-yl]-N,N-dimethylpiperidin-4-amine] |  |  | 12 | 33.2
C[C@H](N)COc1ccc2ncc(-c3cc4c(N5CCC(CO)CC5)nccc4o3)n2n1 [III-22, {1-[2-(6-{[(2S)-2-Aminopropyl]oxy}imidazo[1,2-b]pyridazin-3-yl)furo[3,2-c]pyridin-4-yl]piperidin-4-yl}methanol] |  |  | 6.5 | 14.1
C[C@H](N)COc1ccc2ncc(-c3cc4c(N5CCN(c6ccccc6)CC5)nccc4o3)n2n1 [III-23, (2S)-1-({3-[4-(4-Phenylpiperazin-1-yl)furo[3,2-c]pyridin-2-yl]imidazo[1,2-b]pyridazin-6-yl}oxy)propan-2-amine] |  |  | 16.6 | 45
COC[C@H]1CCCN1c1nccc2oc(-c3cnc4ccc(OC[C@H](C)N)nn34)cc12 [III-24, (2S)-1-[(3-{4-[(2R)-2-(Methoxymethyl)pyrrolidin-1-yl]furo[3,2-c]pyridin-2-yl}imidazo[1,2-b]pyridazin-6-yl)oxy]propan-2-amine] |  |  | 0.4 | 8.6
C[C@H](N)COc1ccc2ncc(-c3cc4c(N5CCOC[C@H]5C)nccc4o3)n2n1 [III-25, (2S)-1-[(3-{4-[(3R)-3-Methylmorpholin-4-yl]furo[3,2-c]pyridin-2-yl}imidazo-[1,2-b]pyridazin-6-yl)oxy]propan-2-amine] |  |  | 9.2 | 13.7
CCN(CCOC(C)(C)C)c1nccc2oc(-c3cnc4ccc(OC[C@H](C)N)nn34)cc12 [III-26, 2-(6-{[(2S)-2-Aminopropyl]oxy}imidazo[1,2-b]pyridazin-3-yl)-N-(2-tert-butoxyethyl)-N-ethylfuro[3,2-c]pyridin-4-amine] |  |  | 1.7 | 0.8
COC[C@@H]1CCCN1c1nccc2oc(-c3cnc4ccc(OC[C@H](C)N)nn34)cc12 [III-27, (2S)-1-[(3-{4-[(2S)-2-(Methoxymethyl)pyrrolidin-1-yl]furo[3,2-c]pyridin-2-yl}imidazo[1,2-b]pyridazin-6-yl)oxy]propan-2-amine] |  |  | 31.1 | 97.5
C[C@H](CN)Oc1ccc2ncc(-c3cc4c(N5CCOCC5)nccc4o3)n2n1 [III-30, (2R)-2-({3-[4-(Morpholin-4-yl)furo[3,2-c]pyridin-2-yl]imidazo[1,2-b]pyridazin-6-yl}oxy)propan-1-amine] |  |  | 5 | 10.4
